Assay results from patent publication US20060035291A1, “Method of detecting cellular immunity and application thereof to drugs” (priority 2001, published 2006).

System: HLA-A2 restricted antigen peptide-specific T cells (CTL precursors) in PBMCs
Experiment: IFN-γ production (ELISA) by peptide-stimulated HLA-A2 positive PBMCs in response to peptide-sensitized T2 cells
Format: cell-based, human
Parameters: production level of IFN-γ: unit not given here
Settings: for production level of IFN-γ: average of 4, HIV peptide background subtracted; for IFN-γ production 1st well / IFN-γ production 2nd well / IFN-γ production 3rd well / IFN-γ production 4th well: before vaccination
[1] = HD6, HLA-A2 positive healthy donor
[2] = HD7, HLA-A2 positive healthy donor
[3] = HD8, HLA-A2 positive healthy donor
[4] = HD9, HLA-A2 positive healthy donor
[5] = HD10, HLA-A2 positive healthy donor
[6] = HLA-A2 positive cervical cancer patient, response to HIV-T2 cells subtracted
[7] = HLA-A2 positive prostate cancer patient
[8] = Pt. 11, HLA-A2 positive pancreatic cancer, ELISA sensitivity limit 10 pg/ml
[9] = Pt. 12, HLA-A2 positive pancreatic cancer, ELISA sensitivity limit 10 pg/ml
[10] = Pt. 13, HLA-A2 positive pancreatic cancer, ELISA sensitivity limit 10 pg/ml
[11] = Pt. 14, HLA-A2 positive pancreatic cancer, ELISA sensitivity limit 10 pg/ml
[12] = Pt. 15, HLA-A2 positive pancreatic cancer, ELISA sensitivity limit 10 pg/ml

Row | Substance | production level of IFN-γ [1] | production level of IFN-γ [2] | production level of IFN-γ [3] | production level of IFN-γ [4] | production level of IFN-γ [5] | IFN-γ production 1st well [6] [pg/well] | IFN-γ production 2nd well [6] [pg/well] | IFN-γ production 3rd well [6] [pg/well] | IFN-γ production 4th well [6] [pg/well] | IFN-γ production 1st well [7] [pg/well] | IFN-γ production 2nd well [7] [pg/well] | IFN-γ production 3rd well [7] [pg/well] | IFN-γ production 4th well [7] [pg/well] | production level of IFN-γ [8] | production level of IFN-γ [9] | production level of IFN-γ [10] | production level of IFN-γ [11] | production level of IFN-γ [12]
1 | DLLSHAFFA [ppMAPkkk432] | 0 | 0 | 0 | 0 | 73 | 137 | 12 | <0 | <0 | 43 | 64 | <0 | 5 | 42 | 57 | 58 | 0 | 0
2 | GLLFLHTRT [ppMAPkkk294] | 0 | 58 | 0 | 0 | 86 | 133 | <0 | <0 | <0 | <0 | 34 | <0 | <0 | 179 | 170 | 0 | 0 | 0
3 | KLVERLGAA [lck246] | 0 | 21 | 29 | 26 | 0 | 19 | <0 | <0 | <0 | <0 | <0 | <0 | <0 | 74 | 16 | 24 | 0 | 0
4 | LLQAEAPRL [SART3302] | 0 | 0 | 51 | 70 | 0 | <0 | <0 | 8 | <0 | <0 | <0 | <0 | <0 | 32 | 0 | 226 | 8 | 0
5 | VLEGMEW [CypB172] |  |  |  |  |  | 22 | <0 | <0 | <0 | <0 | 0 | <0 | <0 |  |  |  |  | 
6 | RLAEYQAYI [SART3309] | 0 | 127 | 30 | 25 | 0 | <0 | <0 | 9 | 28 | <0 | <0 | <0 | <0 | 116 | 0 | 19 | 3 | 27
7 | KLKHYGPGWV [CypB129] | 0 | 0 | 31 | 29 | 6 |  |  |  |  |  |  |  |  | 43 | 0 | 0 | 0 | 0
8 | LIADFLSGL [UBE2V85] | 0 | 0 | 0 | 0 | 1226 | 7 | 34 | <0 | <0 | 0 | <0 | 7 | <0 | 0 | 1 | 13 | 7 | 43
9 | ASLDSDPWV [WHSC2103] | 0 | 0 | 0 | 0 | 96 | 74 | <0 | <0 | <0 | 3 | 0 | <0 | <0 | 186 | 154 | 0 | 38 | 0
10 | ILGELREKV [WHSC2141] | 0 | 0 | 0 | 12 | 260 | 10 | <0 | <0 | <0 | 6 | 14 | <0 | 9 | 0 | 47 | 0 | 659 | 38
11 | DVWSFGILL [lck422] | 0 | 11 | 23 | 60 | 26 | <0 | <0 | <0 | 8 | 1 | <0 | <0 | <0 | 20 | 81 | 10 | 71 | 0
12 | ALVEFEDVL [HNRPL140] | 967 | 0 | 0 | 0 | 99 | 24 | <0 | 13 | 40 | 16 | <0 | <0 | <0 | 0 | 63 | 0 | 317 | 39
13 | NVLHFFNAPL [HNRPL501] | 0 | 0 | 0 | 0 | 0 | 24 | <0 | <0 | 18 | <0 | 7 | <0 | <0 | 0 | 0 | 14 | 0 | 13
14 | RLQEWCSVI [UBE2V43] | 980 | 31 | 0 | 3 | 56 | 13 | 11 | <0 | <0 | <0 | <0 | <0 | <0 | 0 | 0 | 0 | 7 | 0
